Data published in ChEMBL document CHEMBL1146694, “Novel targeting strategy based on multimeric ligands for drug delivery and molecular imaging: homooligomers of alpha-MSH” (Bioorg Med Chem Lett, 2004).

What was measured:
Melanocortin receptor 4 = Melanocortin receptor 4 (Homo sapiens, UniProt P32245); assay: Binding affinity towards human melanocortin 4 receptor was determined using [125I]-NDP-alpha-MSH as radioligand transfected in HEK293 human embryonic kidney cells; type: cell-based; details: read-out: EC50
Melanocortin receptor 4, sequence (P32245 whole entry): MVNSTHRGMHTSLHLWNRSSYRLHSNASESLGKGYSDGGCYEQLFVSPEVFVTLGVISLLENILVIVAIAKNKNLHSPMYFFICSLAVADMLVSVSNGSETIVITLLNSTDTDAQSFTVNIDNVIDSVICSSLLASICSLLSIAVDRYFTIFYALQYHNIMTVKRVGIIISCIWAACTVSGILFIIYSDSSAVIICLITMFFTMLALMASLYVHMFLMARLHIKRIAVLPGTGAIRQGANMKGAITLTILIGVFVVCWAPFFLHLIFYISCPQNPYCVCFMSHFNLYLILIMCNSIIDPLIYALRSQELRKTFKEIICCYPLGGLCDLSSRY

[1] = Hill coefficient was determined; type: ADME

Row | Structure (SMILES) | binding affinity (radioligand displacement) (Melanocortin receptor 4) [nM] | Hill coefficient [1] | binding affinity (radioligand displacement) (Melanocortin receptor 4; hek293) [nM]
1 | CC(=O)N[C@@H](Cc1c[nH]cn1)C(=O)N[C@H](Cc1ccccc1)C(=O)N[C@@H](CCCN=C(N)N)C(=O)N[C@@H](Cc1c[nH]c2ccccc12)C(=O)NCCC(=O)NCC(=O)NCCC(=O)NCC(=O)NCCC(=O)NCC(=O)NCCC(=O)N[C@@H](Cc1c[nH]cn1)C(=O)N[C@H](Cc1ccccc1)C(=O)N[C@@H](CCCN=C(N)N)C(=O)N[C@@H](Cc1c[nH]c2ccccc12)C(N)=O | 571 | 0.88 | 
2 | CC(=O)N[C@@H](Cc1c[nH]cn1)C(=O)N[C@H](Cc1ccccc1)C(=O)N[C@@H](CCCN=C(N)N)C(=O)N[C@@H](Cc1c[nH]c2ccccc12)C(=O)NCCC(=O)NCC(=O)NCCC(=O)NCC(=O)NCCC(=O)N[C@@H](Cc1c[nH]cn1)C(=O)N[C@H](Cc1ccccc1)C(=O)N[C@@H](CCCN=C(N)N)C(=O)N[C@@H](Cc1c[nH]c2ccccc12)C(N)=O | 231 | 1.09 | 
3 | CCCC[C@H](NC(C)=O)C(=O)N[C@@H](CCC(=O)O)C(=O)N[C@@H](Cc1cnc[nH]1)C(=O)N[C@H](Cc1ccccc1)C(=O)N[C@@H](CCCNC(=N)N)C(=O)N[C@@H](Cc1c[nH]c2ccccc12)C(=O)NCCC(=O)NCC(=O)NCCC(=O)N[C@@H](CCCC)C(=O)N[C@@H](CCC(=O)O)C(=O)N[C@@H](Cc1cnc[nH]1)C(=O)N[C@H](Cc1ccccc1)C(=O)N[C@@H](CCCNC(=N)N)C(=O)N[C@@H](Cc1c[nH]c2ccccc12)C(N)=O | 7 | 0.91 | 
4 | CC(=O)N[C@@H](Cc1cnc[nH]1)C(=O)N[C@H](Cc1ccccc1)C(=O)N[C@@H](CCCNC(=N)N)C(=O)N[C@@H](Cc1c[nH]c2ccccc12)C(=O)NCCC(=O)NCC(=O)NCCC(=O)N[C@@H](Cc1cnc[nH]1)C(=O)N[C@H](Cc1ccccc1)C(=O)N[C@@H](CCCNC(=N)N)C(=O)N[C@@H](Cc1c[nH]c2ccccc12)C(N)=O | 143 | 0.99 | 
5 | CC(=O)N[C@@H](Cc1cnc[nH]1)C(=O)N[C@H](Cc1ccccc1)C(=O)N[C@@H](CCCNC(=N)N)C(=O)N[C@@H](Cc1c[nH]c2ccccc12)C(=O)Nc1ccc(C(=O)Nc2ccc(C(=O)Nc3ccc(C(=O)N[C@@H](Cc4cnc[nH]4)C(=O)N[C@H](Cc4ccccc4)C(=O)N[C@@H](CCCNC(=N)N)C(=O)N[C@@H](Cc4c[nH]c5ccccc45)C(N)=O)cc3)cc2)cc1 | 164 | 1.05 | 
6 | CCCC[C@H](NC(C)=O)C(=O)N[C@@H](CCC(=O)O)C(=O)N[C@@H](Cc1c[nH]cn1)C(=O)N[C@H](Cc1ccccc1)C(=O)N[C@@H](CCCN=C(N)N)C(=O)N[C@@H](Cc1c[nH]c2ccccc12)C(=O)NCCOCCOCCNC(=O)CCC(=O)N[C@@H](CCCC)C(=O)N[C@@H](CCC(=O)O)C(=O)N[C@@H](Cc1c[nH]cn1)C(=O)N[C@H](Cc1ccccc1)C(=O)N[C@@H](CCCN=C(N)N)C(=O)N[C@@H](Cc1c[nH]c2ccccc12)C(N)=O | 9 | 1.23 | 
7 | CC(=O)N[C@@H](Cc1c[nH]cn1)C(=O)N[C@H](Cc1ccccc1)C(=O)N[C@@H](CCCN=C(N)N)C(=O)N[C@@H](Cc1c[nH]c2ccccc12)C(=O)NCCCC[C@H](NC(=O)CCNC(=O)CNC(=O)CCNC(=O)[C@H](Cc1c[nH]c2ccccc12)NC(=O)[C@H](CCCN=C(N)N)NC(=O)[C@@H](Cc1ccccc1)NC(=O)[C@H](Cc1c[nH]cn1)NC(C)=O)C(=O)NCCC(=O)NCC(=O)NCCC(=O)N[C@@H](Cc1c[nH]cn1)C(=O)N[C@H](Cc1ccccc1)C(=O)N[C@@H](CCCN=C(N)N)C(=O)N[C@@H](Cc1c[nH]c2ccccc12)C(N)=O |  | 1.56 | 24
8 | CCCC[C@H](NC(C)=O)C(=O)N[C@@H](CCC(=O)O)C(=O)N[C@@H](Cc1cnc[nH]1)C(=O)N[C@H](Cc1ccccc1)C(=O)N[C@@H](CCCNC(=N)N)C(=O)N[C@@H](Cc1c[nH]c2ccccc12)C(=O)NCCCOCCOCCOCCCNC(=O)CCC(=O)NCCCOCCOCCOCCCNC(=O)CCC(=O)N[C@@H](CCCC)C(=O)N[C@@H](CCC(=O)O)C(=O)N[C@@H](Cc1cnc[nH]1)C(=O)N[C@H](Cc1ccccc1)C(=O)N[C@@H](CCCNC(=N)N)C(=O)N[C@@H](Cc1c[nH]c2ccccc12)C(N)=O |  | 0.97 | 122
9 | CC(=O)N[C@@H](Cc1c[nH]cn1)C(=O)N[C@H](Cc1ccccc1)C(=O)N[C@@H](CCCN=C(N)N)C(=O)N[C@@H](Cc1c[nH]c2ccccc12)C(=O)NCCCC[C@H](NC(=O)CCNC(=O)[C@H](Cc1c[nH]c2ccccc12)NC(=O)[C@H](CCCN=C(N)N)NC(=O)[C@@H](Cc1ccccc1)NC(=O)[C@H](Cc1c[nH]cn1)NC(C)=O)C(=O)NCCC(=O)N[C@@H](Cc1c[nH]cn1)C(=O)N[C@H](Cc1ccccc1)C(=O)N[C@@H](CCCN=C(N)N)C(=O)N[C@@H](Cc1c[nH]c2ccccc12)C(N)=O |  | 1.13 | 15
10 | CC(=O)N[C@@H](Cc1c[nH]cn1)C(=O)N[C@H](Cc1ccccc1)C(=O)N[C@@H](CCCN=C(N)N)C(=O)N[C@@H](Cc1c[nH]c2ccccc12)C(=O)NCCCOCCOCCOCCCNC(=O)CCC(=O)N[C@@H](Cc1c[nH]cn1)C(=O)N[C@H](Cc1ccccc1)C(=O)N[C@@H](CCCN=C(N)N)C(=O)N[C@@H](Cc1c[nH]c2ccccc12)C(N)=O |  | 1.83 | 662
11 | CCCC[C@H](NC(C)=O)C(=O)N[C@@H](CCC(=O)O)C(=O)N[C@@H](Cc1c[nH]cn1)C(=O)N[C@H](Cc1ccccc1)C(=O)N[C@@H](CCCN=C(N)N)C(=O)N[C@@H](Cc1c[nH]c2ccccc12)C(=O)NCCCOCCOCCOCCCNC(=O)CCC(=O)N[C@@H](CCCC)C(=O)N[C@@H](CCC(=O)O)C(=O)N[C@@H](Cc1c[nH]cn1)C(=O)N[C@H](Cc1ccccc1)C(=O)N[C@@H](CCCN=C(N)N)C(=O)N[C@@H](Cc1c[nH]c2ccccc12)C(N)=O |  | 1.59 | 33

Second part, the compound after the results:

Row | binding affinity (radioligand displacement) (Melanocortin receptor 4) [nM] | Hill coefficient [1] | binding affinity (radioligand displacement) (Melanocortin receptor 4; hek293) [nM] | Structure (SMILES)
12 | 123 | 1.12 |  | CC(=O)N[C@@H](Cc1c[nH]cn1)C(=O)N[C@H](Cc1ccccc1)C(=O)N[C@@H](CCCN=C(N)N)C(=O)N[C@@H](Cc1c[nH]c2ccccc12)C(=O)Nc1ccc(C(=O)Nc2ccc(C(=O)N[C@@H](Cc3c[nH]cn3)C(=O)N[C@H](Cc3ccccc3)C(=O)N[C@@H](CCCN=C(N)N)C(=O)N[C@@H](Cc3c[nH]c4ccccc34)C(N)=O)cc2)cc1
13 | 14 | 0.84 |  | CC(=O)N[C@@H](Cc1c[nH]cn1)C(=O)N[C@H](Cc1ccccc1)C(=O)N[C@@H](CCCN=C(N)N)C(=O)N[C@@H](Cc1c[nH]c2ccccc12)C(=O)N1CCC[C@H]1C(=O)NCC(=O)N1CCC[C@H]1C(=O)N[C@@H](Cc1c[nH]cn1)C(=O)N[C@H](Cc1ccccc1)C(=O)N[C@@H](CCCN=C(N)N)C(=O)N[C@@H](Cc1c[nH]c2ccccc12)C(N)=O
14 | 38 | 1.05 |  | CC(=O)N[C@@H](Cc1c[nH]cn1)C(=O)N[C@H](Cc1ccccc1)C(=O)N[C@@H](CCCN=C(N)N)C(=O)N[C@@H](Cc1c[nH]c2ccccc12)C(=O)Nc1ccc(C(=O)N[C@@H](Cc2c[nH]cn2)C(=O)N[C@H](Cc2ccccc2)C(=O)N[C@@H](CCCN=C(N)N)C(=O)N[C@@H](Cc2c[nH]c3ccccc23)C(N)=O)cc1
15 | 264 | 0.9 |  | CC(=O)N[C@@H](Cc1c[nH]cn1)C(=O)N[C@H](Cc1ccccc1)C(=O)N[C@@H](CCCN=C(N)N)C(=O)N[C@@H](Cc1c[nH]c2ccccc12)C(=O)N[C@@H](Cc1c[nH]cn1)C(=O)N[C@H](Cc1ccccc1)C(=O)N[C@@H](CCCN=C(N)N)C(=O)N[C@@H](Cc1c[nH]c2ccccc12)C(N)=O
16 | 119 | 1.39 |  | CC(=O)N[C@@H](Cc1c[nH]cn1)C(=O)N[C@H](Cc1ccccc1)C(=O)N[C@@H](CCCN=C(N)N)C(=O)N[C@@H](Cc1c[nH]c2ccccc12)C(=O)NCCC(=O)N[C@@H](Cc1c[nH]cn1)C(=O)N[C@H](Cc1ccccc1)C(=O)N[C@@H](CCCN=C(N)N)C(=O)N[C@@H](Cc1c[nH]c2ccccc12)C(N)=O
17 | 234 | 1.1 |  | CC(=O)N[C@@H](Cc1c[nH]cn1)C(=O)N[C@H](Cc1ccccc1)C(=O)N[C@@H](CCCN=C(N)N)C(=O)N[C@@H](Cc1c[nH]c2ccccc12)C(=O)NCCOCCOCCNC(=O)CCC(=O)N[C@@H](Cc1c[nH]cn1)C(=O)N[C@H](Cc1ccccc1)C(=O)N[C@@H](CCCN=C(N)N)C(=O)N[C@@H](Cc1c[nH]c2ccccc12)C(N)=O
